These results are taken from article doi:10.1101/2020.11.06.371534v1 (biorxiv, 2020).

Counter-ions that a name gives are not always drawn.

The target of assay [1] is T1, Porcine pancreatic elastase (PE) (Sus scrofa, UniProt P00772). Kind of assay: chromogenic assay, OD […] nm, non-linear regression. It is filed as biochemical.
Assay [2] addresses T1, Porcine pancreatic elastase (PE). Kind of assay: chromogenic assay, OD […] nm. It is filed as biochemical.
Assay [3] has the same target. Kind of assay: microscale thermophoresis, NT-647-NHS labelled enzyme. The class given is binding.

T1 sequence (P00772 27-266): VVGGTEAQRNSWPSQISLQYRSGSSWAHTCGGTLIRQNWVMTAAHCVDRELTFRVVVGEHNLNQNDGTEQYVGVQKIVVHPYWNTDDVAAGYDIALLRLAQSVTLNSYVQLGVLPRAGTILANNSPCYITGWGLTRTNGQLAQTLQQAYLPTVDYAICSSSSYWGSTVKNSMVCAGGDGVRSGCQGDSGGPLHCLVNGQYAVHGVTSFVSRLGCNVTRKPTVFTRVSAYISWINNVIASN

Take `CC(C)(C)C(=O)Oc1ccc(S(=O)(=O)Nc2ccccc2C(=O)NCC(=O)O)cc1` [Sivelestat sodium salt hydrate, sodium;2-[[2-[[4-(2,2-dimethylpropanoyloxy)phenyl]sulfonylamino]benzoyl]amino]acetate]: in assay [1], the IC50 was 15.8 µM.

For `COc1ccc([C@@H]2CC(=O)c3c(O)cc(O)cc3O2)cc1O` [Hesperetin, (2S)-5,7-dihydroxy-2-(3-hydroxy-4-methoxyphenyl)-2,3-dihydrochromen-4-one], the inhibition at 125 µM in assay [2] (read-out: % inhibition at 125 μM) was determined as 31.5%.

`O=c1cc(-c2ccccc2)oc2cc(O)c(O)c(O)c12` [Baicalein, 5,6,7-trihydroxy-2-phenylchromen-4-one] gave a Kd in assay [3] of 0.0262 µM. For the same compound, the IC50 in assay [1] stood at 3.53 µM.

`O=c1c(O)c(-c2ccccc2)oc2cc(O)cc(O)c12` [Galangin, 3,5,7-trihydroxy-2-phenylchromen-4-one]: the inhibition at 100 µM in assay [2] (read-out: % inhibition at 100 μM) was found to be 23.6%.

In general, IC50 refers to the concentration that gives 50% inhibition. Read a high IC50 as weaker potency. The term inhibition denotes the share of the control response that was lost under treatment. For orientation: Kd means the equilibrium constant for the complex coming apart. Read a high Kd as a looser complex.
